Data published in patent US9593305B2, “Differentiation of pluripotent stem cells” (Janssen Biotech, Inc., priority 2008, dated 2017).

Tests used:
H1 p49C3 cells = experiment: Differentiation on microcarrier beads, cell number and CXCR4 by flow cytometry (Example 22); format: cell-based, human; details: three days
Procedure: H1 p49C3 cells were routinely grown on Cytodex3 beads (GE Healthcare Life Sciences, NJ) in a 125 ml spinner flask, according to the methods described in U.S. Patent Application No. 61/116,447. After seven days, cells and beads were transferred to a 6 well plate at a ratio of 30 cm^2 bead surface area per well, and the plate was placed on a rocking platform. Cells on beads in the positive control treatment well (designated AA/Wnt3a) were differentiated with addition of 100 ng/ml activin A (PeproTech; Cat #120-14) and 20 ng/ml Wnt3a (R&D Systems; Cat #1324-WN/CF) for two days followed by 100 ng/ml activin A and 8 ng/ml bFGF (PeproTech Inc.; Cat #: 100-18B) for one day in RPMI-1640 (Invitrogen; Cat #: 22400) with 2% Fatty Acid Free BSA (MP Biomedicals, Inc; Cat #152401) using volumes of 2 ml/well. Compound 34, at a final concentration of 2.5 nM was added to a negative control treatment well (designated CMP alone (JNJ alone)) in RPMI-1640 with 2% Fatty Acid Free BSA (2 ml/well) for three days in the absence of any other growth factor treatment. […]
At the conclusion of treatment and culture, cells were harvested from the beads, according to the methods described in U.S. Patent Application No. 61/116,447. The harvested cells were counted and analyzed by flow cytometry, according to the methods described above. […]

[1] = tested on: H1 human embryonic stem cells; experiment: Step-wise differentiation, high content analysis of cell number, insulin, glucagon after step 5 (Example 17); format: cell-based; details: GDF-8 in step 1, alone or with a compound
Procedure: Step 5 of the differentiation protocol was carried out over seven days in DMEM-high glucose with 0.1% Albumax, 0.5× Insulin-Transferrin-Selenium, and 1 μM Alk 5 inhibitor. Medium in each well was aspirated and replaced with a fresh aliquot (0.5 ml) on all days. At the conclusion of the fifth step of differentiation, cells from some wells were harvested for analysis by RT-PCR to measure markers of differentiation. Other culture wells were subjected to high content image analysis for protein expression levels of insulin and glucagon.
At the conclusion of culture, assay plates were washed once with PBS (Invitrogen; Cat #14190), fixed with 4% paraformaldehyde (Alexis Biochemical; Cat #ALX-350-011) at room temperature for 20 minutes, then washed three times with PBS and permeabilized with 0.5% Triton X-100 (Sigma; Cat #T8760-2) for 20 minutes at room temperature. […]
Imaging was performed using an IN Cell Analyzer 1000 (GE Healthcare) utilizing the 51008bs dichroic for cells stained with Hoechst 33342 and Alexa Fluor 488. […] Segmentation for the nuclei was determined based on gray-scale levels (baseline range 100-300) and nuclear size. Averages and standard deviations were calculated for each replicate data set. Total protein expression was reported as total intensity or integrated intensity, defined as total fluorescence of the cell multiplied by the area of the cell. […]

| Compound | differentiation into CXCR4 positive cells (H1 p49C3 cells; Compound 34 alone, no growth factor, Cytodex3 beads) | CXCR4 expression, % of the cells, on average (H1 p49C3 cells; Compound 34 with the various growth factor combinations including 50 ng/ml GDF-8, Cytodex3 beads) | insulin and glucagon expression at the conclusion of step five [1] |
| --- | --- | --- | --- |
| O=C1CCN2CCN(CC2)Cc2cc(Cl)cc(c2)Nc2ncnc(n2)-c2cncc(c2)CCCN1 [Compound 34, 5-Chloro-1,8,10,12,16,22,26,32-octaazapentacyclo[24.2.2.1˜3.7˜0.1˜9,13˜0.1˜14.18˜]tritriaconta-3(33), 4,6,9(32), 10,12,14(31), 15,17-nonaen-23-one] | did not differentiate into CXCR4 positive cells | 50% |  |
| GDF-8: growth factor GDF-8, also known as myostatin, member of the TGF-β family |  |  | resulted in insulin and glucagon expression |
